Measured values taken from patent publication US20150133527A1, “REGULATION OF CARDIAC SODIUM CHANNELS BY SIRT1 AND SIRT1 ACTIVATORS” (University of Pittsburgh - Of the Commonwealth System of …, priority 2012, published 2015).

Assays:
[1] = system: full-length Nav1.5; experiment: Lysine acetylation of full-length Nav1.5 expressed in HEK 293 cells (acetyl-lysine IP / immunoblot); type: cell-based; conditions: HEK 293 cells expressing the full-length channel
Source text: FIGS. 8A and 8B show a series of Western blot images illustrating that wild-type SIRT1 deacetylates full-length Nav1.5. (8A) GFP-tagged full-length Nav1.5 was expressed in HEK 293 cells, with and without myc-tagged wild-type SIRT1, and immunoprecipitated (IP). IPs were immunoblotted (IB) with GFP and myc. (8B) Nav1.5 was expressed in HEK 293 cells. Cells were co-transfected with SIRT or treated with resveratrol or NAM. Acetyl-lysine IPs were immunoblotted for Nav1.5
(§1) How SIRT1 acts to increase Nav1.5 membrane localization and INa was addressed. Because SIRT1 is a lysine deacetylase, it was hypothesized that it changes the acetylation status of lysine residues in Nav1.5. To test this hypothesis, whether the two proteins bind to each other was tested. […] In addition, endogenous SIRT1 co-precipitated with endogenous Nav1.5 in NRCMs and in mouse hearts (FIG. 7B). Next, if Nav1.5 is acetylated on lysine residues was determined. In HEK 293 cells expressing the full-length channel, Nav1.5 was robustly acetylated on lysine residues, and overexpression or stimulation (with resveratrol) of SIRT1 decreased, while inhibition of SIRT1 with NAM increased, this acetylation (FIG. 8).

[2] = system: Nav1.5 (III-IV); experiment: Lysine acetylation of GST-tagged Nav1.5 (III-IV) expressed in HEK 293 cells; type: cell-based; conditions: GST-tagged loop III-IV construct in HEK 293 cells
Source text: GST-tagged Nav1.5 (III-IV) was expressed in HEK 293 cells. Cells were co-transfected with wild-type SIRT1 or treated with NAM or resveratrol. Nav1.5 (III-IV) was pulled down with GST-agarose, and immunoblotted (IB) with GST and acety-lysine antibodies.
Because Nav1.5 has 84 lysine residues, the number of putative lysine targets of SIRT1 was narrowed down by excluding the extra-cellular and membrane-spanning domains. Attention was initially focused on one intracellular region (termed loop III-IV) which is rich in lysine residues (12 lysines), based on by prior reports showing that lysines in this region are important for channel function (Grant et al., J. Clinic. Invest. 110, 1201-1209, 2002). Using a GST-tagged construct encoding the 61 amino acids in loop III-IV expressed in HEK 293 cells, if lysine acetylation of this region of Nav1.5 is regulated by SIRT1 was examined.

[3] = system: GST-Nav1.5 (III-IV); experiment: Ubiquitination of GST-Nav1.5 (III-IV) in HEK 293 cells; type: cell-based
[4] = system: native Nav1.5 (INa); experiment: Whole cell patch clamp of INa in rat neonatal cardiac myocytes; type: cell-based; conditions: 5 μM
[5] = system: native Nav1.5; experiment: Lysine acetylation of native Nav1.5 in rat neonatal cardiomyocytes (Western blot); type: cell-based
Experimental: FIGS. 9A-9C are a graph and a set of Western blots showing that inhibition of endogenous SIRT1 increases lysine acetylation of native Nav1.5 in rat neonatal cardiomyocytes.
as §1

[6] = system: GFP-tagged full-length Nav1.5; experiment: Ubiquitination of GFP-tagged full-length Nav1.5 in HEK 293 cells; type: cell-based; conditions: resveratrol 100 μM, 4 hrs
Experimental: FIGS. 13A and 13B are a set of Western blots showing that SIRT1 de-ubiquitinates Nav1.5. (A) HEK 293 cells were transfected with full-length GFP-tagged Nav1.5 and HA-ubiquitin. Cells were treated with resveratrol (100 μM, 4 hrs). Nav1.5 was immunoprecipitated (IP) with GFP and immunoblotted with GFP and HA. (B) HEK 293 cells were transfected with GST-tagged Nav1.5 (III-IV) and HA-ubiquitin. Cells were treated with NAM or co-transfected with SIRT1. Nav1.5 (III-IV) was pulled down with GST-agarose and immunoblotted (IB) with HA.
Poly-ubiquitination of Nav1.5 inhibits its membrane localization (Van Bemmelen et al., Circ. Res. 95, 284-291, 2004). SIRT1 regulates ubiquitination of some of its targets, in some cases decreasing ubiquitination (Van Bemmelen et al., Circ. Res. 95, 284-291, 2004). Because SIRT1 increases membrane expression of Nav1.5, whether SIRT1 decreases ubiquitination of the channel was tested. First, the effect of the SIRT1 activator resveratrol on ubiquitination of Nav1.5 was determined. In HEK 293 cells GFP-tagged full-length Nav1.5 was robustly poly-ubiquitinated (FIG. 13A). […] Using GST-Nav1.5 (III-IV) the effect of SIRT1 on ubiquitination of this intracellular region of Nav1.5 was also examined. Similar to full-length Nav1.5, GST-Nav1.5 (III-IV) was also poly-ubiquitinated (FIG. 13B). […]

[7] = QRS amplitude on ECGs; type: in vivo; conditions: suggestive of increased sodium currents
Source text: It is disclosed herein that SIRT1 can deacetylate Nav1.5, that Nav1.5 and SIRT1 co-immunoprecipitate, that over-expression of SIRT1 increases INa currents and that dominant negative suppression of SIRT1 or use of SIRT1 inhibitors decreases INa currents, that SIRT1 increases membrane expression of Nav1.5 and dominant negative SIRT1 decreases membrane expression of Nav1.5, that SIRT1 targets lysine 1479 in Nav1.5, that SIRT1 increases INa and dominant negative SIRT1 decreases INa by targeting lysine 1479 in Nav1.5, and that SIRT1 increases membrane expression of Nav1.5 by targeting lysine 1479 in Nav1.5. In addition there is prolongation of the PR interval, intermittent high-grade atrioventricular block on ECGs and telemetry of cardiomyocyte-specific SIRT1 knockout mice compared to wild type control mice, and decreased conduction velocity of the electrical impulse in hearts of cardiomyocyte-specific SIRT1 knockout mice compared to wild type control mice.

## NC(=O)c1cccnc1 [NAM, nicotinamide]
[1]
  lysine acetylation of full-length Nav1.5: increased
[2]
  acetylation of Nav1.5 (III-IV): increased
[3]
  poly-ubiquitination of GST-Nav1.5 (III-IV): increased

## NC(=O)[C@H]1CCCc2c1[nH]c1ccc(Cl)cc21 [Ex-243]
[4]; compared to inactive isomer Ex-242
  effect on INa: significantly decreased
[4]; compared to inactive isomer Ex-242, listed as ex-243
  effect on INa: decreases
[5]
  lysine acetylation of native Nav1.5: increases

## Oc1ccc(C=Cc2cc(O)cc(O)c2)cc1 [resveratrol]
[1]
  lysine acetylation of full-length Nav1.5: decreased
[2]
  acetylation of Nav1.5 (III-IV): decreased
[6]
  poly-ubiquitination of full-length Nav1.5: significantly decreased
[7]
  QRS amplitude on ECGs: increased
